Experimental data as given in ChEMBL document CHEMBL3885861, “Open TG-GATES”.

Species: Rattus norvegicus
Experiment: Open TG-GATES - Regimen: Daily Repeat
Format: toxicity, organism-based, Sprague-Dawley
Design: regimen Daily Repeat, gender Male, age 6 weeks
Details: in vivo, po, 1000 mg/kg, route gavage, dose level High; for APTT / Bas / Eos / Fbg / Hb / Ht / Lym / MCH / MCHC / MCV / Mono / Neu / PT / Plat / RBC / Ret / WBC: tissue Blood; for KIDNEY_L / KIDNEY_R / KIDNEY_TOTAL: tissue Kidney; for LIVER: tissue Liver; for A/G / ALP / ALT / AST / BUN / CRE / Ca / Cl / DBIL / GLC / IP / K / LDH / Na / PL / RALB / TBIL / TC / TG / TP / gamma-GTP: tissue Plasma

## CCOC(=O)CCC(=O)O[C@H]1[C@H](O[C@@H]2[C@@H](C)[C@H](O[C@H]3C[C@@](C)(OC)[C@@H](O)[C@H](C)O3)[C@@H](C)C(=O)O[C@H](CC)[C@@](C)(O)[C@H](O)[C@@H](C)C(=O)[C@H](C)C[C@@]2(C)O)O[C@H](C)C[C@@H]1N(C)C [ERYTHROMYCIN ETHYLSUCCINATE]
72 h, time 3 day
  TERMINAL_BW: 226.1 g
  APTT: 20.6 s
  Bas: 0%
  Eos: 1%
  Fbg: 325 mg/dL
  Hb: 14.4 g/dL
  Ht: 41.8%
  Lym: 86.4%
  MCH: 21.2 pg
  MCHC: 34.4%
  MCV: 61.6 fL
  Mono: 3%
  Neu: 8.6%
  PT: 15.7 s
  Plat: 125 x10_4/uL
  RBC: 679.6 x10_4/ul
  Ret: 3.4%
  WBC: 68.6 x10_2/uL
  KIDNEY_L: 1 g
  KIDNEY_R: 1 g
  KIDNEY_TOTAL: 2 g
  LIVER: 9.5 g
  A/G: 1.2
  ALP: 1860.4 IU/L
  ALT: 38.2 IU/L
  AST: 67.4 IU/L
  BUN: 17 mg/dL
  CRE: 0.2 mg/dL
  Ca: 10.5 mg/dL
  Cl: 108.4 meq/L
  DBIL: 0.002 mg/dL
  GLC: 178 mg/dL
  IP: 7.2 mg/dL
  K: 4.2 meq/L
  LDH: 198.2 IU/L
  Na: 141.8 meq/L
  PL: 155.6 mg/dL
  RALB: 3.1 g/dL
  TBIL: 0.032 mg/dL
  TC: 95.2 mg/dL
  TG: 58.4 mg/dL
  TP: 5.7 g/dL
  gamma-GTP: 1.4 IU/L
[…], time 7 day
  TERMINAL_BW: 250.4 g
  APTT: 21.4 s
  Bas: 0%
  Eos: 1%
  Fbg: 338.6 mg/dL
  Hb: 13.6 g/dL
  Ht: 40.3%
  Lym: 81.6%
  MCH: 20.5 pg
  MCHC: 33.9%
  MCV: 60.4 fL
  Mono: 2.2%
  Neu: 14%
  PT: 16.6 s
  Plat: 112.5 x10_4/uL
  RBC: 666.4 x10_4/ul
  Ret: 3.8%
  WBC: 93.3 x10_2/uL
  KIDNEY_L: 1.1 g
  KIDNEY_R: 1.1 g
  KIDNEY_TOTAL: 2.2 g
  LIVER: 10.1 g
  A/G: 1.1
  ALP: 1998.2 IU/L
  ALT: 35.2 IU/L
  AST: 71.8 IU/L
  BUN: 18.2 mg/dL
  CRE: 0.2 mg/dL
  Ca: 10.5 mg/dL
  Cl: 108.2 meq/L
  DBIL: 0 mg/dL
  GLC: 188.6 mg/dL
  IP: 7.4 mg/dL
  K: 4.1 meq/L
  LDH: 156.6 IU/L
  Na: 141.8 meq/L
  PL: 155 mg/dL
  RALB: 2.8 g/dL
  TBIL: 0.01 mg/dL
  TC: 84.8 mg/dL
  TG: 97.6 mg/dL
  TP: 5.4 g/dL
  gamma-GTP: 1.6 IU/L
[…], time 14 day
  TERMINAL_BW: 298.7 g
  APTT: 20.5 s
  Bas: 0%
  Eos: 0.8%
  Fbg: 327.6 mg/dL
  Hb: 14.2 g/dL
  Ht: 40.6%
  Lym: 83%
  MCH: 20.5 pg
  MCHC: 34.8%
  MCV: 59 fL
  Mono: 3.2%
  Neu: 11.4%
  PT: 16.2 s
  Plat: 107.4 x10_4/uL
  RBC: 690 x10_4/ul
  Ret: 4.6%
  WBC: 91.9 x10_2/uL
  KIDNEY_L: 1.2 g
  KIDNEY_R: 1.2 g
  KIDNEY_TOTAL: 2.4 g
  LIVER: 12.3 g
  A/G: 1.1
  ALP: 1716 IU/L
  ALT: 36 IU/L
  AST: 68.8 IU/L
  BUN: 19.6 mg/dL
  CRE: 0.2 mg/dL
  Ca: 10.7 mg/dL
  Cl: 108.6 meq/L
  DBIL: 0 mg/dL
  GLC: 187 mg/dL
  IP: 6.6 mg/dL
  K: 4.4 meq/L
  LDH: 161 IU/L
  Na: 142 meq/L
  PL: 163.2 mg/dL
  RALB: 2.9 g/dL
  TBIL: 0.006 mg/dL
  TC: 88.8 mg/dL
  TG: 140.8 mg/dL
  TP: 5.6 g/dL
  gamma-GTP: 1.8 IU/L
[…], time 28 day
  TERMINAL_BW: 358.6 g
  APTT: 24.9 s
  Bas: 0%
  Eos: 1%
  Fbg: 340.4 mg/dL
  Hb: 15.2 g/dL
  Ht: 43.7%
  Lym: 82.4%
  MCH: 18.9 pg
  MCHC: 34.7%
  MCV: 54.3 fL
  Mono: 2.2%
  Neu: 12.6%
  PT: 16.3 s
  Plat: 102.9 x10_4/uL
  RBC: 804.4 x10_4/ul
  Ret: 2.3%
  WBC: 79.8 x10_2/uL
  KIDNEY_L: 1.4 g
  KIDNEY_R: 1.4 g
  KIDNEY_TOTAL: 2.8 g
  LIVER: 13.8 g
  A/G: 1.1
  ALP: 1257.4 IU/L
  ALT: 37 IU/L
  AST: 67.6 IU/L
  BUN: 19.2 mg/dL
  CRE: 0.2 mg/dL
  Ca: 10.4 mg/dL
  Cl: 108.8 meq/L
  DBIL: 0.002 mg/dL
  GLC: 173 mg/dL
  IP: 6.9 mg/dL
  K: 4.1 meq/L
  LDH: 132.8 IU/L
  Na: 141.8 meq/L
  PL: 138 mg/dL
  RALB: 3 g/dL
  TBIL: 0.012 mg/dL
  TC: 75.2 mg/dL
  TG: 99.6 mg/dL
  TP: 5.7 g/dL
  gamma-GTP: 1.6 IU/L
